Reference: patent US6852708B2, “Use of hyaluronic acid and forms to prevent the narrowing of the vascular walls” (Jagotec AG, priority 1991, dated 2005)
Several values for one entry are separate records, joined by “and”; a condition that tells them apart may be missing. Equal values may be shown once.

Key:
[1] = test system: macrophage cell line WEHI-3; experiment: Chemotaxis of macrophage cell line WEHI-3 to endotoxin-activated mouse serum (complement); type: cell-based; settings: peptide 2 μg/mL; FIG. 11
Method: (§1) The HA-binding region of RHAMM consists of two 10 amino acid domains located close to the carboxy terminus of the protein^15. A peptide mimicking Domain I (amino acides^401-411)—[…]—and a scrambled peptide consisting of the same amino acids arranged in a random manner-———-were synthesized at the Manitoba Institute of Cell Biology. Both peptides were used at a final concentration of 2 μg/mL in locomotion assays.
(§2) The macrophage cell lines S1 and WEHI-3 were used to analyze the effect of antibodies and synthetic peptide on macrophage chemotaxis to endotoxin-activated mouse serum (AS). These cell lines were also maintained in DME with 10% FCS and 20 mM Hepes buffer, pH 7.2 at 37° C. and 5% CO2 in air.
(§3) Chemotaxis was stimulated using either bacterial endotoxin-activated mouse serum (AS), prepared according to Stevenson et al.^18 for macrophage cell lines, or 100 ng/mL interleukin-8 (IL-8) for meutrophils. Heat-inactivated serum (56° C. for 20 minutes) or medium served as negative controls respectively. […] The number of displaced cells was quantified by the addition of 3-(4.5-dimethylthiazol-2-yl)-2.5-[…] tetrazolium bromide (MTT) to a final concentration of 250 μg/mL that was incubated at 37° C. for 4 hours. […] The plate was analyzed within 2 hours on a microtiter plate ELISA reader with a filter of 540 nm. […]

[2] = test system: macrophage cell line S1; experiment: Chemotaxis of macrophage cell line S1 to endotoxin-activated mouse serum (complement); type: cell-based; settings: peptide 2 μg/mL; FIG. 11
Method: as §1, §2, §3

[3] = test system: smooth muscle cells isolated from bovine aorta; experiment: Smooth muscle cell migration after wounding of monolayers (timelapse cinemicrography); type: cell-based
Method: as §1
Smooth muscles cells were isolated from bovine aorta as described previously for rate aorta^17 and were maintained in Dulbecco's Modified Eagles medium (DME) supplemented with 10% fetal calf serum (FCS) and 20 mM Hepes buffer, pH 7.2 at 37° C. and 5% CO2 in air. All experiments were performed using defined medium [DM, Dulbecco's Modified Eagles medium with 20 mM HEPES buffer, pH 7.2, 0.5 U/mL insulin (beef and pork zinc suspension, Novo Laboratories Ltd., Willowdale, Ontario) and 4 μg/mL transferrin (Sigma Chemical Co., St. Louis, Mo.)], and the culture medium was replaced 24 hours before filming. […]
Injured cell monlayers were monitored for motility using an 1 M 35 Zeiss inverted microscope to which a video camera (Hamamatsu CCD, Inc., Japan) was attached. […] This program allows quantification of nuclear displacement from a sequence of digitalized images. The motility of thirty cells in each experiment was followed for a period of 24 hours with mean velocities calculated every hour.

[4] = test system: Human neutrophils; experiment: Chemotaxis of neutrophils to IL-8; type: cell-based; settings: 100 ng/mL IL-8; peptide 2 μg/mL; FIG. 10
Method: as §1
Human neutrophils were obtained from peripheral blood samples of normal volunteers and mixed in ACD solution (0.085) M trisodium citrate, 0.065 M citric acid, 2% Dextrose) to prevent clotting. 5% Dextran was added and the separated plasma and white blood cells were removed. The cells were washed twice in PBS, pH 7.2 and a Ficoll gradient was used to separate the lymphocytes. The isolated neutrophils were then washed and resuspended in PBS. […]
as §3, with “meutrophils.” for “meutrophils. Heat-inactivated serum (56° C. for 20 minutes) or medium served as negative controls respectively.”

[5] = test system: balloon angioplasty injured carotid artery; experiment: Balloon angioplasty injury in cholesterol-fed rabbits, hyaluronan injections administered subcutaneously; type: in vivo, rabbit
Method: Tests were conducted with cholesterol-fed rabbits and the following was found. The tests were of the same nature except that the injections of the hyaluronan (sodium hyaluronate) were administered subcutaneously.

[6] = test system: injured carotid arteries; experiment: Balloon angioplasty in rabbits perfused with hyaluronan, carotid artery histology; type: in vivo, rabbit; settings: perfused with hyaluronan 5 mg/ml just prior to injury; for adherence / accumulation of white cells on the endothelium of the injured carotid artery: 2, 24, 48 hours after injury
Method: 10 rabbits were anesthetized and balloon angioplasty was performed on them. The rabbits were perfused with hyaluronan (5 mg/ml) or buffer alone and allowed their recover. […] Sections were stained with hematoxylin or with anti RHAMM antibodies. 10 sections of each treatment were analyzed.

[7] = test system: balloon catheter injured common carotid artery; experiment: Balloon catheter injury of the common carotid artery in cholesterol-fed rabbits, hyaluronan i.v. bolus then daily s.c.; type: in vivo, New Zealand White rabbit; settings: for reduction in mean intimal macrophage content: versus cholesterol-diet alone, p<0.02; for reduction of the absolute neo-intimal response to injury (absolute size of the neo-intima): versus cholesterol-fed group given saline, p<0.05, 15 mg/kg/day
Source text: Juvenile New Zealand White rabbits (3 to 6 months old), weighing approximately 2.5 kg were obtained from Rosemead Rabbit Co. Essex, UK) and housed in the Biological Services Unit of St. bartholomew's Hospital Medical College, London.
After one week on a commercial rabbit chow diet (Scientific Diet Services, Essex, UK) the animals were started on a 2% cholesterol diet (Scientific Diet Services, Essex, UK). Water was allowed ad libitum.
One week after starting the above diet, animals were anaesthetized with intramuscular xylazine [Rompun (Bayer, Suffolk, UK); 40 mg/kg] and ketamine [Vetalar (Parke-Davis, UK); 10 mg/kg]. The left carotid bifurcation was exposed through a paramedian incision, and the external carotid artery prepared for balloon injury. The animals were injected with a bolus of sterile sodium hyaluronate (15 mg/kg) referred to at page 15, line 31 to page 16 line 1 (Hyal Pharmaceutical Corporation, Ontario, Canada) or saline via a marginal ear vein. Endothelium was then removed from the entire left common carotid artery by the passage of an inflated 2F French Fogarty Embolectomy catheter as previously described (Ferns et al 1992). The catheter was then withdrawn, the external carotid tied off, and the skin and deep fascia closed with chromic catgut and discontinuous 3-O silk. The validity of the procedure for endothelial cell denudation was assessed by scanning electron microscopy of a number of carotids from animals killed immediately post-operatively. Animals received a further subcutaneous injection of hyaluronic acid (15 mg/kg) or saline post-operatively, and daily until sacrifice.
Blood for serum cholesterol was collected from each animal before the start of each experimental diet, peri-operatively and at the time of sacrifice. Samples were separated by centrifugation and stored at −20° C. prior to analysis.
Two weeks after carotid de-endothelialization, the animals were sedated with intramuscular xylazine and ketamine and given an intravenous injection of 2% Evans blue in isotonic phosphate-buffered saline. Five minutes later, an abdominal incision was made to access the abdominal aorta for insertion of a cannula connected to a perfusion apparatus, and both jugular veins exposed for perfusion run-off. The animals were then killed by an overdose of anaesthetic and perfused with buffered saline at a rate of 100 ml/minute/kg body weight. When the run-off was clear, the saline was replaced with 4% paraformaldehyde in isotonic PBS at the same flow rate. Perfusion was continued for 15 minutes. After fixation in situ, the denuded and contralateral carotids were dissected free and cleaned of adherent fat and fascia. The segments were immediately rinsed in PBS and placed in fresh 4% paraformaldehyde overnight for paraffin embedding. Some segments were placed into 2.5% glutaraldehyde for subsequent processing for electron microscopy.
Five micron sections were taken from the blue (de-endothelialised) segments of carotid artery, for haematoxylin and eosin (H&E) staining. Adjacent sections were cut for elastin staining using Verhoeff-Van Geisen (VVG) stain, and immunostaining using monoclonal antibodies directed against rabbit alveolar macrophages (RAM-11) and smooth muscle cell actin (HHF-35), as described by Tsukada et al. (1986).
Serum cholesterol levels were measured by the CHOD-POD enzymatic-colorimetric method using a Cholesterol C-system kit (Boehringer Corp., Lewes, UK) and a Vitalab 100 autoanalyzer with Precipath U and Precinorm U (Boehringer Corp., Lewes, UK) quality control material.
The intimal and medial thickness of each segment was measured using a Zeiss Axioskop microscope equipped with a X10 Achroplan objective, a digitizing pad and an IBM 55SX PC containing a VIDS V interface card and VIDS V software. Measurements were performed in duplicate on three mid-carotid VVG stained sections. […]

[8] = HYAL + CHOL group, n=15, s.c. injections
[9] = MEAN of HYAL + CHOL group, N=15, 2 weeks after injury
[10] = hyaluronan-treated group, 2 weeks after injury
[11] = individual animals of the HYAL + CHOL group, 2 weeks after injury
[12] = mean ± SEM, n=15, Hyal 15 mg/kg/d

## YKQKIKHVVKLK [peptide aa^401-411]
[1]
  chemotaxis of WEHI-3 to endotoxin-activated mouse serum: inhibited
[2]
  chemotaxis of S1 to endotoxin-activated mouse serum: inhibited
[3]; peptides 100 ng/plate, FIG. 6
  locomotion of smooth muscle cells responding to injury: inhibits
[3]; peptides 2 μg/mL, 5 hours after wounding, FIG. 12
  rate of translocation of smooth muscle cells following wounding of monolayers: significantly reduced
[4]
  chemotaxis of neutrophils to IL-8: significantly inhibited

## sodium hyaluronate
[5]; [8]
  mean I:M ratio: 0.591
  mean absolute intimal thickness: 95.7 μm
[5]; cholesterol-fed rabbits, FIGS. 20 and 21
  neo-intimal thickness following balloon angioplasty injury: significantly inhibited
[6]
  endothelial cell layer of the injured carotid artery (histology): intact endothelial cell layer
[6]; listed as Hyaluronan
  adherence / accumulation of white cells on the endothelium of the injured carotid artery: abolished
[6]; listed as hyaluronan
  adherence / accumulation of white cells on the endothelium of the injured carotid artery: do not exhibit accumulations of white cells
[7]; 15 mg/kg i.v. immediately pre-operatively, then daily s.c. for fourteen days
  intimal thickening in the cholesterol-fed rabbits: significantly inhibited
[7]; 15 mg/kg/d, 2 weeks after injury
  neo-intimal macrophage content in the cholesterol-fed rabbits: reduced
[7]; 2 weeks after injury, p>0.05
  mean medial thickness compared with the control animals: did not differ significantly
[7]; MEAN of HYAL + CHOL group, N=15
  Body Weight, Sacrifice: 2.64 kg
[7]; [9]
  I/M: 0.59
  INTIMA: 65.79 microns
  Intimal Macrophage Content (%): 3.22%
  MEDIA: 105.01 microns
[7]; group mean ± SEM, n=15, at sacrifice, Hyal 15 mg/kg/d
  Mean weight, Sacrifice: 2.64 ± 0.09 kg
[7]; [10]
  intima: media ratio: 0.59±0.011
  mean intimal macrophage content: 3.22±1.05%
[7]; [11]
  I/M: 0.68 and 1.10 and 0.21 and 0.42 and 0.46 and 0.30 and 1.03 and 0.66 and 0.24 and 1.61 and 0.81 and 0.10 and 0.72 and 0.08 and 0.45
  INTIMA: 82.60 microns and 212.00 microns and 22.00 microns and 55.62 microns and 42.10 microns and 17.44 microns and 76.40 microns and 48.23 microns and 26.63 microns and 187.50 microns and 112.22 microns and 8.44 microns and 84.87 microns and 8.38 microns and 2.35 microns
  Intimal Macrophage Content (%): 6.90% and 13.20% and 3.10% and 5.50% and 0.17% and 1.10% and 0.40% (2×) and 0.00% (2×) and 1.70% and 7.80% and 0.50% and 4.70% and 2.90%
  MEDIA: 118.90 microns and 200.00 microns and 109.00 microns and 139.14 microns and 91.10 microns and 78.28 microns and 74.70 microns and 74.65 microns and 111.50 microns and 118.72 microns and 143.77 microns and 83.43 microns and 120.62 microns and 105.57 microns and 5.81 microns
[7]; individual animals of the HYAL + CHOL group, at sacrifice
  Body Weight, Sacrifice: 2.60 kg (2×) and 2.89 kg and 2.91 kg and 3.40 kg and 2.88 kg and 2.81 kg (2×) and 2.25 kg and 2.74 kg and 2.35 kg and 2.15 kg and 2.40 kg and 2.38 kg and 2.42 kg
[7]; individual animals of the HYAL + CHOL group, before treatment
  Body Weight, Start: 2.25 kg
[7]; [12]
  Mean Intimal thickness 2 weeks after injury: 0.068 ± 0.016 mm
  Mean intima/media ratio 2 weeks after injury: 0.59 ± 0.11
  Mean intimal macrophage content 2 weeks after injury (% of total cell number): 3.22 ± 0.98%
[7]; rabbit, in vivo
  gain in body weight over the three week experimental period: approximately 30%
[7]; 2 weeks after injury, listed as Hyaluronan
  reduction in mean intimal macrophage content: 62%
[7]; 2 weeks after injury, listed as hyaluronan
  reduction in mean intimal macrophage content: approximately 62%
[7]; versus cholesterol-fed control group, 2 weeks after injury, 15 mg/kg/d
  reduction of the intima: media ratio: 35%
[7]; 2 weeks after injury, 15 mg/kg/d, listed as Hyaluronan
  reduction of the absolute neo-intimal response to injury (absolute size of the neo-intima): 42%
[7]; 2 weeks after injury, 15 mg/kg/d, listed as hyaluronan
  reduction of the absolute neo-intimal response to injury (absolute size of the neo-intima): approximately 46%
